# “Also recorded” adds a separate entry of the source. Read-outs that look alike come from different tables or passages of the source.
# Tests used:
# Staphylococcus aureus [1] = assay: MIC, two-fold (broth) serial dilution, S. aureus; type: cell-based; settings: Staphylococcus aureus, read-out: MIC
# Outline: (§1)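 Qualitative: agar well diffusion. Quantitative: two-fold (broth) serial dilution → MIC. Inoculum = 1 loop-full, 1:10 dilution of 24-h broth culture in sterile water; fungi/M. smegmatis 48–72 h incubation. Controls: streptomycin sulfate (antibacterial), amphotericin B (antifungal).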
# [2] = CNS screen in unanesthetized mice; type: in vivo; settings: doses as large as 800 mg/kg
# [3] = tested on: carrageenan-induced rat paw edema; assay: carrageenan-induced rat paw edema test, oral gavage; type: in vivo; design: key to mean difference in volume (MDV): ml; post-injection minus pre-injection mean paw volume; settings: for inhibition at 120 mg/kg / inhibition at 240 mg/kg / inhibition at 480 mg/kg: Rattus norvegicus, po, Table 5; for inhibition at 120 mg/kg: read-out: inhibition of carrageenan-induced rat paw edema
# Protocol: In the Rat Paw Edema Test, the rats utilized were divided into test groups of six to eight animals, weighed and marked so that individual rats could be identified; one hour before testing all rats were given a 700 mg/kg intraperitoneal injection of ethyl urethane in distilled water to render them tractable during testing. […] Negative control groups received the vehicle; while positive control groups received a dose of phenylbutazone (PBZ) as shown in Table II. Test compounds were given at doses of 60, 120, 240 and 480 mg/kg. The positive controls were given at 120 mg/kg and 60 mg/kg. Phenylbutazone was prepared for injection by suspending it in normal saline using Tween 60. The rats were then held in group cages for 30 minutes. The volume of the left hind paw was measured using a mercury displacement pleysmograph. The paw is dipped into the mercury until the mercury touches the line above the ankle. Mercury is then withdrawn until the mercury returns to its original level. The amount of mercury removed is measured in milliliters (ml). The mercury can be measured accurately to 0.01 ml. This left hind paw was then injected with 0.1 ml of a 5% w/v solution of viscous carageenan in normal saline. The injection was given between the metatarsal bones using a 27 gauge needle, and the rats then held in group cages for 3 hours. The volume of the left hind paws was measured again in the pleysmograph. The results were computed in the following manner:
# a. A mean is taken for both the pre-injection and post-injection paw volume of each test group.
# b. The mean difference in volume (MDV) for each test group is computed by subtracting the pre-injection means from the post-injection mean.
# c. The percent of control is computed for each test [formula] The percent of control is used to compare the efficacy of the various drug treatments.
# d. The percent increase in paw volume is calculated for each group as: [formula] The percent increase is used to compare the amount of edma observed in one experiment to the amount of edma observed in other experiments.
# […] The test was conducted twice, once with nonfasted rats and once with rats that had been fasted during the 24 hour period prior to dosing. The 60 mg/kg phenylbutazone control group was not used in the test with fasted animals. Tween 60 in normal saline was the vehicle control for the non-fasted rats and normal saline was the vehicle control for the fasted rats.
# Mycobacterium smegmatis = assay: agar well diffusion assay, M. smegmatis; type: cell-based; settings: from edge of agar well
# Protocol: (§2) Both qualitative and quantitative screens were performed. Qualitative screening was accomplished using the agar well diffusion assay technque while quantitative screening was accomplished by the two-fold (broth) serial dilution method to determine the minimum inhibitory concentration (MIC). Innoculation was accomplished with one loop-full of a 1:10 dilution of the 24-hour-old broth culture, (fungal cultures and M.smegmatis more often required 48 to 72 hours of incubation) of the test organisms in sterile water. Streptomycin sulfate was used as a positive control for antibacterial activity while amphitericin B was used as an antifungal positive control. Organisms utilized in the screens included gram-positive, gram-negative, and acid-fast bacteria as well as different types of fungi. […] An intermediate type activity is seen where R is hydrogen. However, where R is lengthened up to C15 a decrease in activity was noted. Total saturation of the two double bonds in the compounds having a methyl side chain lead, in most cases, to an increase in both antifungal and antibacterial activity.
# Bacillus subtilis [4] = assay: MIC, two-fold (broth) serial dilution, B. subtilis; type: cell-based; settings: Bacillus subtilis, read-out: MIC
# Outline: as §1
# Pseudomonas aeruginosa = assay: agar well diffusion assay, Ps. aeruginosa; type: cell-based; settings: from edge of agar well
# Protocol: as §2
# Escherichia coli = assay: agar well diffusion assay, E. coli; type: cell-based; settings: from edge of agar well
# Protocol: as §2
# [5] = deaths and adverse effects observed in the rat paw edema test; type: in vivo; settings: 480 mg/kg i.p. plus ethyl urethane i.p.
# Protocol: In the Rat Paw Edema Test, the rats utilized were divided into test groups of six to eight animals, weighed and marked so that individual rats could be identified; one hour before testing all rats were given a 700 mg/kg intraperitoneal injection of ethyl urethane in distilled water to render them tractable during testing. A circle was drawn, with a felt-tipped marker, around the hind leg of each rat just above the ankle, and each rat was dosed with a test or control compound by intraperitoneal injection. Negative control groups received the vehicle; while positive control groups received a dose of phenylbutazone (PBZ) as shown in Table II. Test compounds were given at doses of 60, 120, 240 and 480 mg/kg. The positive controls were given at 120 mg/kg and 60 mg/kg. Phenylbutazone was prepared for injection by suspending it in normal saline using Tween 60. The rats were then held in group cages for 30 minutes. The volume of the left hind paw was measured using a mercury displacement pleysmograph. The paw is dipped into the mercury until the mercury touches the line above the ankle. Mercury is then withdrawn until the mercury returns to its original level. The amount of mercury removed is measured in milliliters (ml). The mercury can be measured accurately to 0.01 ml. This left hind paw was then injected with 0.1 ml of a 5% w/v solution of viscous carageenan in normal saline. The injection was given between the metatarsal bones using a 27 gauge needle, and the rats then held in group cages for 3 hours. The volume of the left hind paws was measured again in the pleysmograph. The results were computed in the following manner:
# The eighth rat died within 24 hours of injection.
# Bacillus subtilis [6] = assay: agar well diffusion assay, B. subtilis; type: cell-based; settings: from edge of agar well
# Protocol: as §2
# Staphylococcus aureus [7] = assay: agar well diffusion assay, S. aureus; type: cell-based; settings: from edge of agar well
# Protocol: as §2
# Candida albicans = assay: agar well diffusion assay, C. albicans; type: cell-based; settings: from edge of agar well
# Protocol: as §2
# [8] = Table 6, 120 mg/kg oral, non-fasted rats
# [9] = Table 6, 240 mg/kg oral, non-fasted rats
# [10] = Table 6, 480 mg/kg oral, non-fasted rats
# [11] = Table 7, 120 mg/kg oral, fasted rats, doses approximate
# [12] = Table 7, 240 mg/kg oral, fasted rats, doses approximate
# [13] = Table 7, 480 mg/kg oral (given following saline infusion), fasted rats, doses approximate
smiles,measurement,setting,value
"CCCCCc1cc(O)c2c(c1)OC(C)(CCC=C(C)C)C=C2 (stereo not shown) [CBC (I), 2-methyl-2(4'methyl-pent-3'-enyl)-5-hydroxy-7-pentyl chromene]",MIC,Staphylococcus aureus [1]; 24 h,1.56 µg/mL
same,MIC,Staphylococcus aureus [1]; 48 h,1.56 µg/mL
same,effects on the CNS screen,[2],No significant effects
same,inhibition at 120 mg/kg,"[3]; 120 mg/kg oral, fasted rats, N.S.",35%
same,inhibition at 120 mg/kg,"[3]; 120 mg/kg oral, nonfasted rats",21%
same,inhibition at 240 mg/kg,"[3]; 240 mg/kg oral, fasted rats, * P = 0.01",67%
same,inhibition at 240 mg/kg,"[3]; 240 mg/kg oral, nonfasted rats, ** P = 0.05",34%
same,inhibition at 480 mg/kg,"[3]; 480 mg/kg oral, fasted rats, ** P = 0.05",55%
same,inhibition at 480 mg/kg,"[3]; 480 mg/kg oral, nonfasted rats, * P = 0.01",50%
same,mean difference in volume (MDV),[3]; [8],0.496
same,percent increase in paw volume,[3]; [8],41.311%
same,percent of control,[3]; [8],79.400%
same,mean difference in volume (MDV),[3]; [9],0.412
same,percent increase in paw volume,[3]; [9],38.372%
same,percent of control,[3]; [9],66.000%
same,mean difference in volume (MDV),[3]; [10],0.315
same,percent increase in paw volume,[3]; [10],29.200%
same,percent of control,[3]; [10],50.400%
same,mean difference in volume (MDV),[3]; [11],0.409
same,percent increase in paw volume,[3]; [11],31.382%
same,percent of control,[3]; [11],65.400%
same,mean difference in volume (MDV),[3]; [12],0.209
same,percent increase in paw volume,[3]; [12],15.981%
same,percent of control,[3]; [12],53.400%
same,mean difference in volume (MDV),[3]; [13],0.281
same,percent increase in paw volume,[3]; [13],22.321%
same,percent of control,[3]; [13],45.000%
same,antiinflammatory activity compared with PBZ in words,"[3]; oral, listed as CBC",about equally effective at 120 mg/kg in the fasted rats; also recorded: generally more effective in inhibiting edema than was PBZ
same,width of inhibition zone,Mycobacterium smegmatis; 24 hr,15. mm
same,width of inhibition zone,Mycobacterium smegmatis; 48 hr,12. mm
same,MIC,Bacillus subtilis [4]; 24 h,0.39 µg/mL
same,MIC,Bacillus subtilis [4]; 48 h,0.78 µg/mL
same,width of inhibition zone,Pseudomonas aeruginosa; 24 hr,1. mm
same,width of inhibition zone,Pseudomonas aeruginosa; 48 hr,1. mm
same,width of inhibition zone,Escherichia coli; 24 hr,5. mm
same,width of inhibition zone,Escherichia coli; 48 hr,5. mm
same,deaths,[5],All the animals receiving 480 mg/kg died within 2 days of injection
same,width of inhibition zone,Bacillus subtilis [6]; 24 hr,8.0 mm
same,width of inhibition zone,Bacillus subtilis [6]; 48 hr,5.0 mm
same,width of inhibition zone,Staphylococcus aureus [7]; 24 hr,10. mm
same,width of inhibition zone,Staphylococcus aureus [7]; 48 hr,10. mm
same,width of inhibition zone,Candida albicans; 48 hr,4.0 mm
same,width of inhibition zone,Candida albicans; 72 hr,4.0 mm

# Source: patent publication US4837228A, “Antiinflammatory and antimicrobial compounds and compositions” (The University of Mississippi, priority 1982, dated 1989)
